Values joined by “and” are separate entries in the source; they are usually repeats but may differ in a detail not shown here. Equal entries are not always repeated. Where two headings read alike, the source gives them in different places.
Assays:
Type in all cases: biochemical
[1] = target: T1, Human Recombinant SSAO (Homo sapiens, UniProt Q16853); test: Compound oxidation assay (substrate propensity) by SSAO; settings: for Oxidation by SSAO (hydrogen peroxide generated relative to DMSO): single concentration 30 µM
T1 sequence (Q16853 1-763): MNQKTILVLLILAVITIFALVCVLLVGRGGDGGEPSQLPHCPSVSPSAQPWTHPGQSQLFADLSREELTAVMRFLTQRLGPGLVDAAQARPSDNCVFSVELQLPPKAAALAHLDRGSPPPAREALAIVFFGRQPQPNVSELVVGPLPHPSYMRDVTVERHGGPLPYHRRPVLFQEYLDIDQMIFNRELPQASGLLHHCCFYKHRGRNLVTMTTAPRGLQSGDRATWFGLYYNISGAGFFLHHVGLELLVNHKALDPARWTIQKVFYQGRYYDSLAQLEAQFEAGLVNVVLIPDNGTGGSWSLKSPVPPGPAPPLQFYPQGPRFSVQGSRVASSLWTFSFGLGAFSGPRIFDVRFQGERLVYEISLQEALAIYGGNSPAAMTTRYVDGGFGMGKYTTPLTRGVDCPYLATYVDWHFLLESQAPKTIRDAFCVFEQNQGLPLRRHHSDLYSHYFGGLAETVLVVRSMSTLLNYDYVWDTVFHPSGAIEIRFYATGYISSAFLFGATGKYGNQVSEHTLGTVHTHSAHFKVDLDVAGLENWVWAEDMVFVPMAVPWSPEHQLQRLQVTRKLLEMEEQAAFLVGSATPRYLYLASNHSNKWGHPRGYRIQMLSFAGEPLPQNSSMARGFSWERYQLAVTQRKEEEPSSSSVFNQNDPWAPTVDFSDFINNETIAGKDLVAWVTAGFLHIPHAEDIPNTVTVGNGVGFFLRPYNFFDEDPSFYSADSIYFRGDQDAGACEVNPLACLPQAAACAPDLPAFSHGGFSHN
Protocol: For compound oxidation assays, the amount of hydrogen peroxide generated at a single concentration (30 µM) of compound relative to DMSO was measured.
Data are expressed as mean ± SEM. Subsequent statistical analysis was performed with unpaired two-sided Student’s t tests. *p < 0.05, **p < 0.01, ***p < 0.001and ****p < 0.0001. Source data are provided as a Source Data file.
This assay determines the substrate propensity of a compound relative to background (dimethyl sulfoxide only). Compound oxidation by rhSSAO was measured by fluorometric assay. Briefly, rhSSAO was incubated for 2 h at 37 °C in HEPES buffer before the addition of an equal volume of Amplex Red ([…]), horseradish peroxidase (4 U/ml), and test compound in the same buffer. The kinetics of the formation of resorufin was measured immediately using Optima reader (BMG Labtech GmbH, Ortenburg, Germany), at 37 °C.

[2] = target: T2, Rat Recombinant LOXL2 (Rattus norvegicus, UniProt B5DF27); test: Amine oxidase inhibition profile, rat LOXL2
T2 construct: made in house; host or cells: HEK-293 clones (provided by Dr. Fernando Rodríguez Pascual)
T2 sequence (B5DF27 26-776): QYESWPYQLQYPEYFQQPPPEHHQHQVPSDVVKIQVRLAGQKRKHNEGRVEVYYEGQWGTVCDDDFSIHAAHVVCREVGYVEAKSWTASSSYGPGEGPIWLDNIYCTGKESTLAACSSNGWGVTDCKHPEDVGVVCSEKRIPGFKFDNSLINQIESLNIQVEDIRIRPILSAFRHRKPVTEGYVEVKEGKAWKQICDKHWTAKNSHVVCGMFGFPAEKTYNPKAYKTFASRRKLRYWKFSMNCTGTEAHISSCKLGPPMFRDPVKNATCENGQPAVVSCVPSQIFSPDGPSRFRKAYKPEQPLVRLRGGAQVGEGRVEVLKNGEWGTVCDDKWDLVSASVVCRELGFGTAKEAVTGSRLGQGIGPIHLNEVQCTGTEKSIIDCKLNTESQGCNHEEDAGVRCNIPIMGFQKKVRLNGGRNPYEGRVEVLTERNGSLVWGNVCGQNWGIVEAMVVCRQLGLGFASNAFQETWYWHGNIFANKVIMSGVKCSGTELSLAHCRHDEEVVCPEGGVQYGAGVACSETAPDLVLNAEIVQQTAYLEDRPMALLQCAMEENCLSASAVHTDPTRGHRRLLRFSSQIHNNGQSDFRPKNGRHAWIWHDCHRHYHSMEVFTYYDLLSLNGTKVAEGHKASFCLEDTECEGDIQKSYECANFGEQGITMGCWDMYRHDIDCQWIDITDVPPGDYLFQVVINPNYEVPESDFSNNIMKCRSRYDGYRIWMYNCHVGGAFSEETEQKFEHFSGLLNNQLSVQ

[3] = target: T3, Human Recombinant MAO-A (Homo sapiens, UniProt P21397); test: Amine oxidase inhibition profile, MAO-A
T3 sequence (P21397 1-527): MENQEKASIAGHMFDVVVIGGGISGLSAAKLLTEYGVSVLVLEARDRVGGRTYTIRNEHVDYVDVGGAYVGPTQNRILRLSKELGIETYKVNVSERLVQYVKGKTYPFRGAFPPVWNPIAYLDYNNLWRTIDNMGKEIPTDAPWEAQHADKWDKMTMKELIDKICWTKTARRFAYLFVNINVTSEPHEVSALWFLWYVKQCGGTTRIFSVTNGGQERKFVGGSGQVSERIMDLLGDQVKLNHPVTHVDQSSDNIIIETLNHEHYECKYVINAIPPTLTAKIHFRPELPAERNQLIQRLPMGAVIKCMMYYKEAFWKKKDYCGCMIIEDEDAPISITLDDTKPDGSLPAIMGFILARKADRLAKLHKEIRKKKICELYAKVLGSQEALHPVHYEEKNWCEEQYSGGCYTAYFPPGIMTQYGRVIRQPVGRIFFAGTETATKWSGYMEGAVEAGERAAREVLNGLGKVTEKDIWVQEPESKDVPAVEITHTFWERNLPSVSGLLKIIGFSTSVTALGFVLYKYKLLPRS
From the text: Supplem entary Materi als:
Supplementary Table S1: Amine oxidase inhibition profile of PXS -4787, PXS-6302 and
Supplementary Table S2: Perm eability profile of PXS -6302.

[4] = read-out: Recombinant MAO-A IC50

SMILES	SSAO specificity (Fig 2F), oxidation, individual experiments [1]; 30	SSAO specificity (Fig 2F), oxidation, individual experiments [1]; 60	SSAO specificity (Fig 2F), oxidation, individual experiments [1]; 90	IC50 [2] [µM]	Rat Recombinant LOXL2 pIC50±SD [2]	Recombinant MAO-A pIC50 [3]	IC50 [3, 4] [µM]	Oxidation by SSAO (hydrogen peroxide generated relative to DMSO) [1]	IC50 [3] [µM]
N#CCCN [BAPN, β-aminoproprionitrile, reference compound]	1.24 and 1.43 and 1.55 and 1.3 and 1.39	2.24 and 2.72 and 2.02 and 1.5 and 1.72	4.91 and 2.48 and 2.66 and 3.66	0.65	6.2 ± 0.2	< 4.5	> 30		
NC/C=C(\F)CS(=O)(=O)c1ccccc1 [PXS-4787]				0.59			> 30	1.3	
NC/C=C(\F)C(F)(F)S(=O)(=O)c1ccccc1 [PXS-6302]	1.48 and 1.33 and 1.2 and 1.19 and 1.18 and 1.24 and 1.1 and 1.3 and 1.37 and 1.13 and 1.23	1.4 and 1.33 and 1.41	1.53 and 2.99 and 4.36	0.43				1.3	> 30

Reference: PMC9500072, “Topical application of an irreversible small molecule inhibitor of lysyl oxidases ameliorates skin scarring and fibrosis” (Nature Communications, 2022)
